ChEMBL document CHEMBL5291721, “A preclinical secondary pharmacology resource illuminates target-adverse drug reaction associations of marketed drugs” (Nat Commun, 2023)

Legend:
[1] = target: Gamma-aminobutyric acid receptor subunit alpha-1 (Rattus norvegicus, UniProt P62813)
[2] = target: T1, Muscarinic acetylcholine receptor M1 (Homo sapiens, UniProt P11229); format: functional
T1 sequence (P11229 whole entry): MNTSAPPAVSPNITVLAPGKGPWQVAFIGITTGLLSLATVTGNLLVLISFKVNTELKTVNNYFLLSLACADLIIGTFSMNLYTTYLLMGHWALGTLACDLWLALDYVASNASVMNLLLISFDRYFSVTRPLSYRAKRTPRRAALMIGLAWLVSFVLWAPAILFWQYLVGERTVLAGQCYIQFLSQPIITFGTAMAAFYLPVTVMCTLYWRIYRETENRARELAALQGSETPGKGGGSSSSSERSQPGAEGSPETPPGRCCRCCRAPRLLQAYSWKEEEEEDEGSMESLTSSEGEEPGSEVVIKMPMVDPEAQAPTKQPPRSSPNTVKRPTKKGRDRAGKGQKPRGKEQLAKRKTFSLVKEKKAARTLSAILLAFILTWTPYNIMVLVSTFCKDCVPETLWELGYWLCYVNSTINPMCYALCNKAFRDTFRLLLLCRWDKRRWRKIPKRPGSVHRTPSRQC

[3] = target: T2, Thromboxane A2 receptor (Homo sapiens, UniProt P21731)
T2 sequence (P21731 whole entry): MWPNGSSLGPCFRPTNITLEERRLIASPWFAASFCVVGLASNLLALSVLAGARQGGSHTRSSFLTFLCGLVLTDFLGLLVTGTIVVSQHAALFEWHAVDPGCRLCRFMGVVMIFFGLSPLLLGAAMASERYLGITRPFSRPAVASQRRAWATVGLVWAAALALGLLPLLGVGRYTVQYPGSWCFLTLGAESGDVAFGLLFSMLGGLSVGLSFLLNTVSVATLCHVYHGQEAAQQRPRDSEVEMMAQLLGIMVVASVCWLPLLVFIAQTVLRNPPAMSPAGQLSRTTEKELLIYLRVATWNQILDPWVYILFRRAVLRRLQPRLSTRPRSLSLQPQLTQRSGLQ

[4] = target: cGMP-inhibited 3',5'-cyclic phosphodiesterase 3A (Homo sapiens, UniProt Q14432); format: functional
[5] = target: Prostaglandin G/H synthase 1 (Homo sapiens, UniProt P23219); format: functional
[6] = target: Histamine H2 receptor (Homo sapiens, UniProt P25021); format: functional, cell-based
[7] = target: Histamine H1 receptor (Homo sapiens, UniProt P35367)
[8] = target: T1, Muscarinic acetylcholine receptor M1; format: functional, cell-based
[9] = target: Histamine H3 receptor (Homo sapiens, UniProt Q9Y5N1)
[10] = target: 5-hydroxytryptamine receptor 2B (Homo sapiens, UniProt P41595); format: functional, cell-based
[11] = target: T2, Thromboxane A2 receptor; format: functional, cell-based
[12] = target: T3, Alpha-1A adrenergic receptor (Homo sapiens, UniProt P35348); format: functional, cell-based
T3 sequence (P35348 whole entry): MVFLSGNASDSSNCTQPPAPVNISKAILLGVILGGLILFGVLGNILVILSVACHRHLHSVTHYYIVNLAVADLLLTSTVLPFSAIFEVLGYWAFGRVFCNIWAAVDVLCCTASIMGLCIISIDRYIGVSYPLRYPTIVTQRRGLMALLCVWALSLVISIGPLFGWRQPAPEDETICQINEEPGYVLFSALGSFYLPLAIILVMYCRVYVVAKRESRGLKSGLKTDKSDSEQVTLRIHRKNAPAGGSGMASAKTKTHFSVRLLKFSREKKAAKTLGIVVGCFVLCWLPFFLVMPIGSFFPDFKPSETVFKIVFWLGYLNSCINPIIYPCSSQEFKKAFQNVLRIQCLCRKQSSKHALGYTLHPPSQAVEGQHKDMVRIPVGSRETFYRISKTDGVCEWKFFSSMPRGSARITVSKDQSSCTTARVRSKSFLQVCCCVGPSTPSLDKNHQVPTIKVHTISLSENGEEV
Note: assay procedure not described here.

Sequence of Histamine H3 receptor (Q9Y5N1 whole entry): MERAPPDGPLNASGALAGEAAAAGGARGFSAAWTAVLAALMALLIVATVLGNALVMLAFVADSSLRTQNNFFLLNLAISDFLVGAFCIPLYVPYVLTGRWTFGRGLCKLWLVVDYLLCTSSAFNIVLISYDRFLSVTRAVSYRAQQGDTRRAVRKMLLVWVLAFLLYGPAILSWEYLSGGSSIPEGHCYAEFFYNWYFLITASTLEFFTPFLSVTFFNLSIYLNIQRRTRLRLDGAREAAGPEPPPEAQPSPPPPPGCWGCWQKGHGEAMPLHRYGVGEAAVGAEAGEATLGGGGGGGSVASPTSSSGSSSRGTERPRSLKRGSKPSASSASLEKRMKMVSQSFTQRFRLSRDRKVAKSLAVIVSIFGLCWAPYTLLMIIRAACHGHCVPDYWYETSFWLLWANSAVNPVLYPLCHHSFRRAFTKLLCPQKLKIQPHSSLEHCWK
Sequence of 5-hydroxytryptamine receptor 2B (P41595 whole entry): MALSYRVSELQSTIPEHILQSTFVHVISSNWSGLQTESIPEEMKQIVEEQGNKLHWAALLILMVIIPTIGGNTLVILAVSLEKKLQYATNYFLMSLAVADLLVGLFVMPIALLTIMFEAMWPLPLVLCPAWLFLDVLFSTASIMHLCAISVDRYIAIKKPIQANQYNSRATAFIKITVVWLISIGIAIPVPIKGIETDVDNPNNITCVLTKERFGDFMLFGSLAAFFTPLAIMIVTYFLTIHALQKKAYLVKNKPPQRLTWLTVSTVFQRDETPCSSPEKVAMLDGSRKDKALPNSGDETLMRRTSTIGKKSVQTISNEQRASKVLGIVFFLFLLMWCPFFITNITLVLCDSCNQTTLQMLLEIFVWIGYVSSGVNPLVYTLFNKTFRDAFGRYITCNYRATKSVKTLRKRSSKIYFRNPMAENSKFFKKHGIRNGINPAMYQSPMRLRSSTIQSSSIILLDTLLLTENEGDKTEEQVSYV
Sequence of cGMP-inhibited 3',5'-cyclic phosphodiesterase 3A (Q14432 whole entry): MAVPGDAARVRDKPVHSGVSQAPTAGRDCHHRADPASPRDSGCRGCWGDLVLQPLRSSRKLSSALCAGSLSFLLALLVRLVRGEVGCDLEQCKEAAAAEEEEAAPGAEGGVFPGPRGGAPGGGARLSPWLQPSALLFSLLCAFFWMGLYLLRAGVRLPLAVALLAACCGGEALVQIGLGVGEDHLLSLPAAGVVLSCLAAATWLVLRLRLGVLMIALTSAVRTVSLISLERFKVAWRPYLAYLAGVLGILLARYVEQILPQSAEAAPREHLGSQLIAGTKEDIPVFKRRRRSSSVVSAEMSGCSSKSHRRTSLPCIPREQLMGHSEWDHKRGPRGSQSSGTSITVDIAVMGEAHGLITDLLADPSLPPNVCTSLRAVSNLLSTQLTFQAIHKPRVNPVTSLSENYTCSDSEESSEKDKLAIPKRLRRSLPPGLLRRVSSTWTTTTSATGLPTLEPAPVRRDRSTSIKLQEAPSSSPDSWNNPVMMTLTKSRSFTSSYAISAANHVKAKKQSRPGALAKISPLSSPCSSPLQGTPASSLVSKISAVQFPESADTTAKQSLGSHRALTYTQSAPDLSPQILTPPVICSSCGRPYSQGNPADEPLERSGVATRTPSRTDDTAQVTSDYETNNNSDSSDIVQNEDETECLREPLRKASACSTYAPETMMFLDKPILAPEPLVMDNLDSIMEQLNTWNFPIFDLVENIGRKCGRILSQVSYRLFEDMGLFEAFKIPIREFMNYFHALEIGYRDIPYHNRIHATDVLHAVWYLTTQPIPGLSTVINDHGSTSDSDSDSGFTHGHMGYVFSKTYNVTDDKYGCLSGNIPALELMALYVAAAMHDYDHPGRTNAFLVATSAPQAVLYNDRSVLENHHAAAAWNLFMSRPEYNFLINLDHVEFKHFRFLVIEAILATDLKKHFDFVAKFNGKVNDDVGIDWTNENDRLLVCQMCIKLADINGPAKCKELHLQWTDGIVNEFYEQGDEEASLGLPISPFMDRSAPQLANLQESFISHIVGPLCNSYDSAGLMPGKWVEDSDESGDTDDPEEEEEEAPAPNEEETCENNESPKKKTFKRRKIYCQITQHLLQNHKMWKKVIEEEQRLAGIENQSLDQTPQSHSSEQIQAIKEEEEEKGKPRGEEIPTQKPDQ
Sequence of Prostaglandin G/H synthase 1 (P23219 whole entry): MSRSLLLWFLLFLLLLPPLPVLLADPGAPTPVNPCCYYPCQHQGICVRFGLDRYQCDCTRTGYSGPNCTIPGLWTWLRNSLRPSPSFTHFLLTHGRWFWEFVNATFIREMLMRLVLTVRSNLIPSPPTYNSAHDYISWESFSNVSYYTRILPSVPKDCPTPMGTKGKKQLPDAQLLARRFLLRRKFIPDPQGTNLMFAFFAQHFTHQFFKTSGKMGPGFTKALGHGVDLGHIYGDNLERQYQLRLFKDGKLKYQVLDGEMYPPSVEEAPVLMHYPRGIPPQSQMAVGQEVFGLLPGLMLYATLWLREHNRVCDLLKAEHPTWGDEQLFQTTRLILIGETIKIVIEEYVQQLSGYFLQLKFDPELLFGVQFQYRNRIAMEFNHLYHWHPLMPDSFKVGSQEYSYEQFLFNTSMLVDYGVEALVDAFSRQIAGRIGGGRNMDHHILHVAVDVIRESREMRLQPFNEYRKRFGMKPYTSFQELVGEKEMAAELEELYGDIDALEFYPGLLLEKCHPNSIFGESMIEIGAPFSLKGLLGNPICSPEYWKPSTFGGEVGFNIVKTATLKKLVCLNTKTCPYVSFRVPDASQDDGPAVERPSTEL
Sequence of Histamine H2 receptor (P25021 whole entry): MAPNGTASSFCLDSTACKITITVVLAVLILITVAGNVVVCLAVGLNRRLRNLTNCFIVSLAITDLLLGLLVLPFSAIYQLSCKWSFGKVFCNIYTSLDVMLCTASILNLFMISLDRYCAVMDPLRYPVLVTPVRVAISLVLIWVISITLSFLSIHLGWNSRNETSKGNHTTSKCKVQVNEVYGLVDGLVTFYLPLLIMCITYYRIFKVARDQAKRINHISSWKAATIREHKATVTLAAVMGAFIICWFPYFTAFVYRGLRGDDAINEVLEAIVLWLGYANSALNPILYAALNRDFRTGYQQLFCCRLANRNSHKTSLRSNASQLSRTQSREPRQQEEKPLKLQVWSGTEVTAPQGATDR
Sequence of Gamma-aminobutyric acid receptor subunit alpha-1 (P62813 whole entry): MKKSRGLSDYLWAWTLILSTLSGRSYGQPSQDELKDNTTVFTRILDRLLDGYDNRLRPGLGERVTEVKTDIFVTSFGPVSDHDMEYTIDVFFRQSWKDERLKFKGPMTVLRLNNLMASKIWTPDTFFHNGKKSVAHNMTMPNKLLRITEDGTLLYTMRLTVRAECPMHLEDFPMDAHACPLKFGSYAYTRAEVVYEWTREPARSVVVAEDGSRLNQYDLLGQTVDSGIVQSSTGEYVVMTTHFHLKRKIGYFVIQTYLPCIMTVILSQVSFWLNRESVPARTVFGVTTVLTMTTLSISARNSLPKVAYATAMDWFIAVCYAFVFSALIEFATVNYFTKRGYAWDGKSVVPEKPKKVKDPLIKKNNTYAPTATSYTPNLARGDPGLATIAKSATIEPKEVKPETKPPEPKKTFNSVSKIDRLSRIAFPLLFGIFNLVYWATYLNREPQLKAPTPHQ
Sequence of Histamine H1 receptor (P35367 whole entry): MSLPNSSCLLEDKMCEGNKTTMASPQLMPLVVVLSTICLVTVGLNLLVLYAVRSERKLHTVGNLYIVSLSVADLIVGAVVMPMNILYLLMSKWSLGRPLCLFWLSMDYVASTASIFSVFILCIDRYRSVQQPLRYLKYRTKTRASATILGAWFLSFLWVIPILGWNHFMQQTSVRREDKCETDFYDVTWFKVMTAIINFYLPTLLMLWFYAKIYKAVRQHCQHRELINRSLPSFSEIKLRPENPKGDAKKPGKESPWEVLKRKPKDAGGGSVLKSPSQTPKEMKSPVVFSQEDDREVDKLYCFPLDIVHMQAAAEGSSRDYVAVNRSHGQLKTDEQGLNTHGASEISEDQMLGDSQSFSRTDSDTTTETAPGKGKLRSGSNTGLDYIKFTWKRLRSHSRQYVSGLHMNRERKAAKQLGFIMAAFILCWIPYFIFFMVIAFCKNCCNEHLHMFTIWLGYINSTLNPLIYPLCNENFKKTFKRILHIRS

Row | SMILES | AC50 [1] [µM] | AC50 [2] [µM] | AC50 [3] [µM] | AC50 [4] [µM] | AC50 [5] [µM] | AC50 [6] [µM] | AC50 [7] [µM] | AC50 [8] [µM] | AC50 [9] [µM] | AC50 [10] [µM] | AC50 [11] [µM] | AC50 [12] [µM]
1 | CN(C)CCN(Cc1ccccc1)c1ccccn1 [TRIPELENNAMINE] | > 10 | > 10 | > 10 | > 30 | > 30 | > 10 | 0.08 | > 30 | > 30 | > 30 | > 30 | > 30
2 | C[C@]12CC[C@@H]3c4ccc(OC(=O)N(CCCl)CCCl)cc4CC[C@H]3[C@@H]1CC[C@@H]2OP(=O)(O)O [ESTRAMUSTINE PHOSPHATE] |  |  |  | > 30 | > 30 |  |  | > 30 | > 30 | > 30 | > 30 | > 30
3 | CC#CC(=O)N1CCC[C@H]1c1nc(-c2ccc(C(=O)Nc3ccccn3)cc2)c2c(N)nccn12 [ACALABRUTINIB] |  |  |  | > 30 | > 30 |  |  | > 30 | > 30 | > 30 | > 30 | > 30
4 | CC1=C(C/C=C(\C)CCC[C@H](C)CCC[C@H](C)CCCC(C)C)C(=O)c2ccccc2C1=O [PHYTONADIONE] |  |  |  | 3.44 | > 30 |  |  | > 30 | > 30 | > 30 | > 30 | > 30
5 | NC(=O)C1(N2CCCCC2)CCN(CCCC(=O)c2ccc(F)cc2)CC1 [PIPAMPERONE] |  |  |  | > 30 | > 30 |  |  | > 30 | 21.7 | > 30 | > 30 | > 30
6 | CC(C)NC[C@H](O)COc1ccc(O)cc1 [PRENALTEROL] |  |  |  | > 30 | 8.99 |  |  | > 30 | > 30 | > 30 | > 30 | > 30
7 | CN1CCC(N(Cc2cccs2)c2ccccc2)CC1 [THENALIDINE] |  |  |  | > 30 | > 30 |  |  | 0.762 | > 30 | > 30 | > 30 | > 30
8 | Cc1cccc(C)c1NC(=O)c1cc(S(N)(=O)=O)c(Cl)cc1O [XIPAMIDE] |  |  |  | > 30 | > 30 |  |  | > 30 | > 30 | > 30 | > 30 | > 30
9 | CCCCCCO[C@@H](C)c1cccc(-c2csc(NC(=O)c3cc(Cl)c(/C=C(\C)C(=O)O)c(Cl)c3)n2)c1OC [LUSUTROMBOPAG] |  |  |  | > 30 | 2.15 |  |  | 16.2 | 15.1 | > 30 | 14.2 | > 30
10 | C=CCOc1ccc(CC(=O)O)cc1Cl [ALCLOFENAC] |  |  |  | > 30 | > 30 |  |  | > 30 | > 30 | > 30 | > 30 | > 30
11 | OC[C@H]1NC[C@H](O)[C@@H](O)[C@H]1O |  |  |  | > 30 | > 30 |  |  | > 30 | > 30 | > 30 | > 30 | > 30
12 | Cc1ccc(C(C)C)c(O)c1 [THYMOL] |  |  |  | > 30 | > 30 |  |  | 13.9 | > 30 | > 30 | > 30 | > 30
13 | Cc1cc(C)cc(OCC2CNC(=O)O2)c1 (stereo not drawn) [METAXALONE] |  |  |  | > 30 | > 30 |  |  | > 30 | > 30 | > 30 | > 30 | > 30
14 | C[C@@H](CN1CC(=O)NC(=O)C1)N1CC(=O)NC(=O)C1 [DEXRAZOXANE] |  |  |  | > 30 | 2.16 |  |  | > 30 | > 30 | > 30 | > 30 | > 30
